# In patent US4628095A, “Substituted N-benzyl-4-(benzhydryl) piperidines” (G. D. Searle & Co., priority 1985, dated 1986):
# Legend:
# [1] = system: spontaneously hypertensive rat (SHR); experiment: Anti-hypertensive activity, unanesthetized spontaneously hypertensive rat (SHR) assay, mean arterial blood pressure; format: in vivo
# Protocol: Male, unanesthetized spontaneously hypertensive rats, 11 to 16 weeks old were used in this test procedure. The compounds to be tested are administered intragastrically at a dose of 50 mg/kg or intraarterially/intraveneously at a dose of 10 mg/kg. or such other doses determined to be suitable for a specific test compound.
# Initial mean arterial blood pressure was measured directly via a previously implanted arterial catheter immediately before administration of the test compound. Blood pressure readings were made at 1, 2, 3, and 4 hours following administration of the test compound. […] Statistical comparisons were made using the paired Student's T test with two sided probability calculations.
# [2] = system: vascular smooth muscle (isolated thoracic aorta segments); experiment: Calcium antagonism in vascular smooth muscle, isolated thoracic aorta segments from male spontaneously hypertensive rat (pA2); format: cell-based; conditions: for pA2 (Ca++ antagonism): test compound 1×10^-6 M, one hour incubation, K+ (100 mM) depolarized, considered active if pA2 is 6.0 or greater; for active in the foregoing test (vascular calcium antagonism): reference drugs
# Protocol: Isolated thoracic aorta segments from the male spontaneously hypertensive rat were utilized in this test procedure.
# The excised aorta segment was mounted in a tissue bath containing modified Krebs solution. After depolarization of the tissue with potassium (100 mM), calcium, in cumulative concentrations of 1×10^-3 M, 3.2×10^-3 M, and 1×10^-2 M was injected into the bath to produce vascular smooth muscle contraction. The developed tension (in grams) is measured and control dose-response values obtained. After one hour of incubation with a test compound at 1×10^-6 M concentration, the same doses of calcium ions were repeated. The log dose-response curves of the control and after treatment were analyzed by linear regression. The pA2 value was calculated as a measure of calcium antagonism of the test compound. See Van Rossum, J. M., Arch. Int. Pharmacodyn, 143, 299-330, 1963.
# Calcium ions play an essential role in induction and maintenance of vascular smooth muscle contractility. In potassium depolarized vascular smooth muscle, calcium antagonists may block the entry of calcium ions into the cell or act by other mechanisms to inhibit the contractions induced by calcium ions. The inhibition of calcium ion-induced contraction of vascular smooth muscle is used to test compounds for vascular calcium antagonism. Cardiovascular diseases such as arrythmias, angina-pectoris, hypertension, and peripheral vascular disease may be causally related to abnormalities in cellular handling of calcium ions.
# [3] = reference drugs, dose not given
structure (smiles),measurement,setting,value
"C[C@](N)(Cc1ccc(O)c(O)c1)C(=O)O [Aldomet, reference compound]",active in the foregoing hypertensive rat assay,[1]; [3],active
"NNc1nncc2ccccc12 [Apresoline, reference compound]",active in the foregoing hypertensive rat assay,"[1]; rat, in vivo",active
"C[C@H](CS)C(=O)N1CCC[C@H]1C(=O)O [Captopril, reference compound]",active in the foregoing hypertensive rat assay,[1]; [3],active
"Clc1cccc(Cl)c1N=C1NCCN1 [Clonidine, reference compound]",active in the foregoing hypertensive rat assay,"[1]; rat, in vivo",active
"CN(C)c1ccc(CN2CCC(C(c3ccc(F)cc3)c3ccc(F)cc3)CC2)c(C(=O)NC(C)(C)C)c1 [Example 3, 2-[[4-[bis(4-fluorophenyl)methyl]-1-piperidinyl]methyl]-5-(dimethylamino)-N-(1,1-dimethylethyl)benzamide]","SHR -mm Hg (dose), blood pressure change",[1]; 50 mpk-oral,-54 mm Hg
same,pA2 (Ca++ antagonism),[2],inactive
"COC(=O)c1cc(N(C)C)ccc1CN1CCC(C(c2ccc(F)cc2)c2ccc(F)cc2)CC1 [Example 4, methyl 2-[[4-[bis(4-fluorophenyl)methyl]-1-piperidinyl]methyl]-5-(dimethylamino)benzoate]","SHR -mm Hg (dose), blood pressure change",[1]; 50 mpk-oral,-67 mm Hg
same,pA2 (Ca++ antagonism),"[2]; 60 min, 1 µM",7.78
"CNC(=O)c1cc(N(C)C)ccc1CN1CCC(C(c2ccccc2)c2ccccc2)CC1 [Example 5, 5-(dimethylamino)-2-[[4-(diphenylmethyl)-1-piperidinyl]methyl]-N-methylbenzamide]","SHR -mm Hg (dose), blood pressure change",[1]; 10 mpk-i.v.,-56 mm Hg
same,pA2 (Ca++ antagonism),"[2]; 60 min, 1 µM",7.25
"CN(C)c1ccc(CN2CCC(C(c3ccccc3)c3ccccc3)CC2)c(C(=O)NC(C)(C)C)c1 [Example 6, 5-(dimethylamino)-N-(1,1-dimethylethyl)-2-[[4-(diphenylmethyl)-1-piperidinyl]methyl]benzamide]",SHR activity (in words),"[1]; dose not given, active if mean post treatment blood pressure differs from control, p <= 0.05",inactive
same,pA2 (Ca++ antagonism),"[2]; 60 min, 1 µM",7.20
"COC(=O)c1cc(OC)ccc1CN1CCC(C(c2ccccc2)c2ccccc2)CC1 [Example 8, methyl 2-[[4-(diphenylmethyl)-1-piperidinyl]methyl]-5-methoxybenzoate]","SHR -mm Hg (dose), blood pressure change",[1]; 3-10 mpk-i.v.,-40 mm Hg
CN(C)c1ccc(C[N+]2([O-])CCC(C(c3ccccc3)c3ccccc3)CC2)cc1 (centres unmarked) [Example 9],"SHR -mm Hg (dose), blood pressure change",[1]; 50 mpk-oral,-48 mm Hg
same,pA2 (Ca++ antagonism),[2],inactive
"COC(=O)c1cc(N(C)C)ccc1CN1CCC(C(c2ccccc2)c2ccccc2)CC1 [Example 11, methyl 5-(dimethylamino)-2-[[4-(diphenylmethyl)-1-piperidinyl]methyl]benzoate]","SHR -mm Hg (dose), blood pressure change",[1]; 50 mpk-oral,-34 mm Hg
same,pA2 (Ca++ antagonism),"[2]; 60 min, 1 µM",7.65
"COc1ccc(CCN(C)CCCC(C#N)(c2ccc(OC)c(OC)c2)C(C)C)cc1OC (centres unmarked) [Verapamil, reference compound]",active in the foregoing test (vascular calcium antagonism),[2],active
"COc1ccc([C@@H]2Sc3ccccc3N(CCN(C)C)C(=O)[C@@H]2OC(C)=O)cc1 [diltiazem, reference compound]",active in the foregoing test (vascular calcium antagonism),[2],active
"COC(=O)C1=C(C)NC(C)=C(C(=O)OC)C1c1ccccc1[N+](=O)[O-] [nifedipine, reference compound]",active in the foregoing test (vascular calcium antagonism),[2],active
